We go through eight compounds from ChEMBL document CHEMBL5346957, “Enantioselective Synthesis and Biological Evaluation of Pyrrolidines Bearing Quaternary Stereogenic Centers” (J Med Chem, 2023).

pIC50: −log10 of the molar value. Active and inactive are the calls of the source. The calls are words filed in the database; no cut-off is given here.

For one data set, the system named is A549. Nature of the data set: Antiproliferative activity against human A549 cells incubated for 72 hrs measured by MTT assay. As to conditions: A549, 72 h. Type of data set: functional, cell-based. (Tetrazolium assays rely on reduction of a dye to a coloured formazan, in cell work by metabolically active cells.)
A further data set has as its system PC-3. Nature of the data set: Antiproliferative activity against human PC-3 cells incubated for 72 hrs measured by MTT assay. The following applies: PC-3, 72 h. In kind it is functional, cell-based.
In data set [1] the test system is A-375. Nature of the data set: Antiproliferative activity against human A-375 cells incubated for 72 hrs measured by MTT assay. In kind it is functional, cell-based. As to conditions: A-375, 72 h.
For another data set, the system named is MDA-MB-231. Kind of data set: Antiproliferative activity against human MDA-MB-231 cells incubated for 72 hrs measured by MTT assay. Type of data set: functional, cell-based. As to conditions: MDA-MB-231, 72 h.
For a further data set, the system named is HeLa. Nature of the data set: Antiproliferative activity against human HeLa cells incubated for 72 hrs measured by MTT assay. In kind it is functional, cell-based.
For another data set, the system named is HepG2. Nature of the data set: Antiproliferative activity against human HepG2 cells incubated for 72 hrs measured by MTT assay. In kind it is functional, cell-based. As to conditions: HepG2, 72 h.
The test system of another data set is HCT-116. Nature of the data set: Antiproliferative activity against human HCT-116 cells incubated for 72 hrs measured by MTT assay. Type of data set: functional, cell-based. The following applies: HCT-116, 72 h.
The next data set deals with MIA PaCa-2. Kind of data set: Antiproliferative activity against human MIA PaCa-2 cells incubated for 72 hrs measured by MTT assay. The following applies: MIA PaCa-2, 72 h. In kind it is functional, cell-based.
Data set [2] in a line: Cytotoxicity against human BEAS-2B cells incubated for 72 hrs measured by MTT assay. In kind it is toxicity, cell-based.
Data set [3] deals with A-375. Kind of data set: Effect on mitotic progression in human A-375 cells assessed as mitotic index at 0.5 uM measured by flow cytometric analysis (reference value: 3.22%). Type of data set: functional. (In general: A flow cytometer gives signals particle by particle.)
For data set [4], the system named is A-375. Nature of the data set: Effect on mitotic progression in human A-375 cells assessed as mitotic index at 1 uM measured by flow cytometric analysis (reference value: 3.22%). Type of data set: functional.
The test system of data set [5] is A-375. Nature of the data set: Effect on mitotic progression in human A-375 cells assessed as mitotic index at 2 uM measured by flow cytometric analysis (reference value: 3.22%). In kind it is functional.
For data set [6], the system named is A-375. Nature of the data set: Effect cycle arrest in human A-375 cells assessed as accumulation of cells in G2/M phase at 0.5 uM measured by flow cytometric analysis (reference value: 26.76%). In kind it is functional.
Data set [7] has as its system A-375. Nature of the data set: Effect cycle arrest in human A-375 cells assessed as accumulation of cells in G2/M phase at 1 uM measured by flow cytometric analysis (reference value: 26.76%). Type of data set: functional.
In data set [8] the test system is A-375. Kind of data set: Effect cycle arrest in human A-375 cells assessed as accumulation of cells in G2/M phase at 2 uM measured by flow cytometric analysis (reference value: 26.76%). Type of data set: functional.
Data set [9] concerns A-375. Kind of data set: Induction of apoptosis in human A-375 cells assessed as early apoptotic cells at 0.5 uM measured by annexin V/PI based flow cytometric analysis (reference value: 9.78%). Type of data set: functional.
In data set [10] the test system is A-375. Nature of the data set: Induction of apoptosis in human A-375 cells assessed as early apoptotic cells at 1 uM measured by annexin V/PI based flow cytometric analysis (reference value: 9.78%). In kind it is functional.
For data set [11], the system named is A-375. Kind of data set: Induction of apoptosis in human A-375 cells assessed as early apoptotic cells at 2 uM measured by annexin V/PI based flow cytometric analysis (reference value: 9.78%). Type of data set: functional.
The subject of data set [12] is A-375. Kind of data set: Induction of apoptosis in human A-375 cells assessed as late apoptotic cells at 0.5 uM measured by annexin V/PI based flow cytometric analysis (reference value: 1.07%). Type of data set: functional.
Data set [13] concerns A-375. Kind of data set: Induction of apoptosis in human A-375 cells assessed as late apoptotic cells at 1 uM measured by annexin V/PI based flow cytometric analysis (reference value: 1.07%). Type of data set: functional.
Data set [14] has as its system A-375. Kind of data set: Induction of apoptosis in human A-375 cells assessed as late apoptotic cells at 2 uM measured by annexin V/PI based flow cytometric analysis (reference value: 1.07%). In kind it is functional.
The test system of data set [15] is A-375. Kind of data set: Induction of apoptosis in human A-375 cells assessed as apoptotic cells at 0.5 uM measured by annexin V/PI based flow cytometric analysis (reference value: 10.8%). In kind it is functional.
The test system of data set [16] is A-375. Kind of data set: Induction of apoptosis in human A-375 cells assessed as apoptotic cells at 1 uM measured by annexin V/PI based flow cytometric analysis (reference value: 10.8%). Type of data set: functional.
Data set [17] concerns A-375. Nature of the data set: Induction of apoptosis in human A-375 cells assessed as apoptotic cells at 2 uM measured by annexin V/PI based flow cytometric analysis (reference value: 10.8%). In kind it is functional.
The target in a further data set is T1, Aurora kinase A (Homo sapiens, UniProt O14965).
T1 sequence (O14965 whole entry): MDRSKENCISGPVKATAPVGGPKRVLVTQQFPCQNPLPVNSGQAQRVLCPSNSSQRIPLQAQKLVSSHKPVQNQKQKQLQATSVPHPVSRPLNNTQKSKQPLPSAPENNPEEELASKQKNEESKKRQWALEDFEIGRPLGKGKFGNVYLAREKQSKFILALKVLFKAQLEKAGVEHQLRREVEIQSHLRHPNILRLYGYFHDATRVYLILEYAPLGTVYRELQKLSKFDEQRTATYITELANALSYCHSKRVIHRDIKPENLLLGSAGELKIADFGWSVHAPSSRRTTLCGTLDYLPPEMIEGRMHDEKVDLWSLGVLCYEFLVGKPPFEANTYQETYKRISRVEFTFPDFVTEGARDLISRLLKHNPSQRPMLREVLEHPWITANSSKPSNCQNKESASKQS
Kind of data set: Inhibition of Aurora A (unknown origin) incubated for 1 hr by microplate reader analysis.

A further data set addresses Aurora kinase B (Homo sapiens, UniProt Q96GD4). Nature of the data set: Inhibition of Aurora B (unknown origin) incubated for 1 hr by microplate reader analysis.
A further data set addresses T2, Aurora kinase C (Homo sapiens, UniProt Q9UQB9).
T2 sequence (Q9UQB9 whole entry): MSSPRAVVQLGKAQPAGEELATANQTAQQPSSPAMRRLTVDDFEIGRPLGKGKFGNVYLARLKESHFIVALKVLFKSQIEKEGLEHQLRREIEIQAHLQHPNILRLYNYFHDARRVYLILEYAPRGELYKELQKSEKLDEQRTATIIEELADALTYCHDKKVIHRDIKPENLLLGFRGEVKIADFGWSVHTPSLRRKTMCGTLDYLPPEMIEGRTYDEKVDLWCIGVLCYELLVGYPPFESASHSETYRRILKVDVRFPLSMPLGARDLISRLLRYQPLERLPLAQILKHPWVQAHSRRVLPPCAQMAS
Kind of data set: Inhibition of Aurora C (unknown origin) incubated for 1 hr by microplate reader analysis.

Data set [18] concerns the target T3, Aurora kinase A (Homo sapiens) (UniProt O14965).
T3 sequence (whole entry): T1 sequence (O14965 whole entry)
Nature of the data set: Inhibition of Aurora A (unknown origin) assessed as downregulation of kinase phosphorylation at 0.5 to 2 uM by Western blot analysis. The following applies: dose 0.5-2 µM. A general note: In western blotting, separated proteins are transferred to a membrane and probed.

Sequence of Aurora kinase B (Q96GD4 whole entry): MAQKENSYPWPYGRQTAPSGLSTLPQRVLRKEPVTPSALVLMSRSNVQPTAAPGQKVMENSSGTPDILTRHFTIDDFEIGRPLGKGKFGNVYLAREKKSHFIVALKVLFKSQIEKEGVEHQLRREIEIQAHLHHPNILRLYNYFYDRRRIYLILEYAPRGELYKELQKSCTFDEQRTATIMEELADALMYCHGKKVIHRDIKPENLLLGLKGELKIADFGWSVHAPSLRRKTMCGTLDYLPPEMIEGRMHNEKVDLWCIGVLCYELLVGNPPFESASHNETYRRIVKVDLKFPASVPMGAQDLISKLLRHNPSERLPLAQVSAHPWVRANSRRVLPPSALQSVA

With `CCOc1ccc([C@@H]2[C@@](C)([N+](=O)[O-])[C@@H](c3ccccc3)N[C@@]2(C)C(=O)OC)cc1`, the pIC50 was 4.31 in the data set with A549; 4.49 in the data set with PC-3; 4.57 in the data set on A-375 [1]; 4.46 in the data set with MDA-MB-231; 4.08 in the data set with HeLa; below 4.00 in the data set with HepG2. Also, the pIC50 in the data set with HCT-116 was 4.13; with MIA PaCa-2, below 4.00. The IC50 at 72 h in data set [2] was above 100 µM.
Take `CCOc1ccc([C@H]2[C@H](C(=O)OC)N[C@H](c3ccccc3)[C@]2(C)[N+](=O)[O-])cc1`: the pIC50 in the data set on A549, with PC-3, with A-375 [1], in the data set on MDA-MB-231, in the data set on HeLa and in the data set with HepG2 was below 4.00 in each case. Also, the pIC50 in the data set with HCT-116 and in the data set with MIA PaCa-2 was below 4.00 each time. This compound yielded an IC50 at 72 h in data set [2] above 100 µM.
`CCOc1ccc([C@H]2[C@](C)([N+](=O)[O-])[C@H](c3ccccc3)N[C@]2(C)C(=O)OC)cc1`: the pIC50 in the data set on A549 was 6.29; in the data set on PC-3, 6.40; with A-375 [1], 6.62; in the data set on MDA-MB-231, 6.37; in the data set with HeLa it was 6.02; in the data set with HepG2 it was 5.78. For the same compound, the pIC50 in the data set with HCT-116 is 6.14; in the data set on MIA PaCa-2 it was 5.97; at Aurora kinase A, 6.55. For the same compound, in [2], the IC50 at 72 h is above 100 µM. Further, the Activity in the data set on A-375 [3] came to 6.24%; in the data set with A-375 [4], 10.82%; in the data set on A-375 [5], 18.51%; in the data set on A-375 [6], 32.73%; in the data set with A-375 [7] it was 54.46%; with A-375 [8], 68.69%. The Activity in the data set on A-375 [9] stood at 13.5%; with A-375 [10], 20.4%; in the data set with A-375 [11], 19.8%; in the data set with A-375 [12] it was 9.23%; in the data set on A-375 [13], 14.6%; in the data set with A-375 [14] it was 17.8%. In addition, the Activity in the data set on A-375 [15] was determined as 22.7%; with A-375 [16], 35%; with A-375 [17] it was 37.6%. In addition, the IC50 result at Aurora kinase B and against Aurora kinase C was “Not Active” each time. Besides, the inhibition result in [18] is “Active”.
Take `CCOc1ccc([C@@H]2[C@@H]([N+](=O)[O-])[C@@H](c3ccccc3)N[C@H]2C(=O)OC)cc1`: the pIC50 in the data set on A549, in the data set on PC-3, with A-375 [1], in the data set on MDA-MB-231, with HeLa and in the data set on HepG2 was below 4.00 throughout. The pIC50 in the data set on HCT-116 and in the data set with MIA PaCa-2 was below 4.00 throughout. Moreover, the IC50 at 72 h in data set [2] was above 100 µM.
As to `CCOc1ccc([C@H]2[C@H]([N+](=O)[O-])[C@H](c3ccccc3)N[C@@H]2C(=O)OC)cc1`, the pIC50 with A549, in the data set with PC-3, in the data set with A-375 [1], in the data set with MDA-MB-231, with HeLa and with HepG2 was below 4.00 each time. Also, the pIC50 in the data set on HCT-116 and in the data set with MIA PaCa-2 was below 4.00 throughout. The IC50 at 72 h in data set [2] is above 100 µM.
In the case of `CCOc1ccc([C@@H]2[C@@H]([N+](=O)[O-])[C@@H](c3ccccc3)N[C@@]2(C)C(=O)OC)cc1`, the pIC50 in the data set on A549, with PC-3, in the data set on A-375 [1], with MDA-MB-231, in the data set with HeLa and in the data set on HepG2 was below 4.00 throughout. Also, the pIC50 in the data set on HCT-116 and with MIA PaCa-2 was below 4.00 in each case. The compound also yielded an IC50 at 72 h in data set [2] above 100 µM.
`CCOc1ccc([C@H]2[C@H]([N+](=O)[O-])[C@H](c3ccccc3)N[C@]2(C)C(=O)OC)cc1`: the pIC50 in the data set on A549, with PC-3, in the data set with A-375 [1], in the data set on MDA-MB-231, in the data set on HeLa and in the data set on HepG2 was below 4.00 in each case. Further, the pIC50 in the data set on HCT-116 and in the data set with MIA PaCa-2 was below 4.00 each time. The compound further yielded an IC50 at 72 h in data set [2] above 100 µM.
For the compound `CCOc1ccc([C@@H]2[C@@H](C(=O)OC)N[C@@H](c3ccccc3)[C@@]2(C)[N+](=O)[O-])cc1`, the pIC50 was 4.94 in the data set with A549; 4.85 in the data set on PC-3; 5.13 in the data set with A-375 [1]; 4.77 in the data set with MDA-MB-231; 4.78 with HeLa; 4.54 with HepG2. In addition, the pIC50 was 4.91 in the data set with HCT-116 and 4.67 with MIA PaCa-2. Further, the IC50 at 72 h in [2] is above 100 µM.

As usually defined, the pIC50 is the IC50 on a negative log10 scale, so that one unit is a factor of ten. Read a low pIC50 as a large IC50. One may read the IC50 as the point on the concentration scale where inhibition reaches its midpoint. Read a low IC50 as greater potency.
